{"source": "patent US20080032945A1", "about": "“2'-MODIFIED OLIGONUCLEOTIDES” (Isis Pharmaceuticals, Inc., priority 1992, published 2008)", "key": {"[1]": {"test_system": "ras-luciferase (codon-12 point mutation of activated H-ras)", "assay": "ras-luciferase reporter gene system", "type": "cell-based, human", "conditions": "for effect on ras expression: chimeric backbone-modified oligonucleotides, result in words; for inhibition of ras-luciferase activity: cells expressing the mutant form of ras-luciferase, dose response, FIGS. 1 and 2"}, "ras mRNA": {"test_system": "ras mRNA", "assay": "Northern blot analysis of ras expression in T24 cells", "type": "cell-based, human", "protocol": "The human urinary bladder cancer cell line T24 was obtained from the American Type Culture Collection (Rockville Md.). Cells were grown in McCoy's 5A medium with L-glutamine (GIBCO-BRL, Gaithersburg, Md.), supplemented with 10% heat-inactivated fetal calf serum and 50 U/ml each of penicillin and streptomycin. Cells were seeded on 100 mm plates. When they reached 70% confluency, they were treated with oligonucleotide. Plates were washed with 10 ml prewarmed PBS and 5 ml of OptiMEM (GIBCO) reduced-serum medium containing 2.5 μl DOTMA. Oligonucleotide was then added to the desired concentration. After 4 hours of treatment, the medium was replaced with McCoy's medium. Cells were harvested 48 hours after oligonucleotide treatment and RNA was isolated using a standard CsCl purification method. [Kingston in Current Protocols in Molecular Biology, F. M. Ausubel, R. Brent, R. E. Kingston, D. D. Moore, J. A. Smith, J. G. Seidman and K. Strahl, Eds., John Wiley and Sons, New York.] The human epithelioid carcinoma cell line HeLa 229 was obtained from the American Type Culture Collection (Bethesda, Md.). HeLa cells were maintained as monolayers on 6-well plates in Dulbecco's Modified Eagle's medium (DMEM) supplemented with 10% fetal bovine serum and 100 U/ml penicillin. Treatment with oligonucleotide and isolation of RNA were essentially as described above for T24 cells.\nNorthern hybridization: 10 μg of each RNA was electrophoresed on a 1.2% agarose/formaldehyde gel and transferred overnight to GeneBind 45 nylon membrane (Pharmacia LKB, Piscataway, N.J.) using standard methods. [Kingston in Current Protocols in Molecular Biology, F. M. Ausubel, R. Brent, R. E. Kingston, D. D. Moore, J. A. Smith, J. G. Seidman and K. Strahl, Eds., John Wiley and Sons, New York.] RNA was UV-crosslinked to the membrane. Double-stranded ^32P-labeled probes were synthesized using the Prime a Gene labeling kit (Promega, Madison Wis.). The ras probe was a SalI-NheI fragment of a cDNA clone of the activated (mutant) H-ras mRNA having a GGC-to-GTC mutation at codon-12. The control probe was G3PDH. Blots were prehybridized for 15 minutes at 68° C. with the QuickHyb hybridization solution (Stratagene, La Jolla, Calif.). The heat-denatured radioactive probe (2.5×10^6 counts/2 ml hybridization solution) mixed with 100 μl of 10 mg/ml salmon sperm DNA was added and the membrane was hybridized for 1 hour at 68° C. The blots were washed twice for 15 minutes at room temperature in 2×SSC/0.1% SDS and once for 30 minutes at 60° C. with 0.1×SSC/0.1% SDS. Blots were autoradiographed and the intensity of signal was quantitated using an ImageQuant PhosphorImager (Molecular Dynamics, Sunnyvale, Calif.). Northern blots were first hybridized with the ras probe, then stripped by boiling for 15 minutes in 0.1×SSC/0.1% SDS and rehybridized with the control G3PDH probe to check for correct sample loading."}, "PKC-α mRNA": {"test_system": "PKC-α mRNA", "assay": "Northern blot analysis of PKC-α mRNA levels", "type": "cell-based, human", "conditions": "result in words", "protocol": "Oligonucleotides having SEQ ID NO:4 were synthesized as uniformly phosphorothioate chimeric oligonucleotides having a centered deoxy gap of varying lengths flanked by 2′-O-methylated regions. These oligonucleotides (500 nM concentration) were tested for effects on PKC-A mRNA levels by Northern blot analysis.\nAdditional phosphorothioate oligonucleotides targeted to the human PKC-α 3′ untranslated region were designed and synthesized."}, "[2]": {"test_system": "25mer oligoribonucleotide complement", "assay": "Melting curves with 25mer oligoribonucleotide complement", "type": "binding", "conditions": "17mer hybridized with 25mer oligoribonucleotide complement", "description": "Other sugar modifications: The effects of other 2′ sugar modifications besides 2′-O-methyl on antisense activity in chimeric oligonucleotides have been examined. These modifications are listed in Table 4, along with the Tm values obtained when 17mer oligonucleotides having 2′-modified nucleotides flanking a 7-base deoxy gap were hybridized with a 25mer oligoribonucleotide complement as described in Example 25. […] As alkyl length increased, Tm decreased.\nAbsorbance vs. temperature curves were measured at 260 nm using a Gilford 260 spectrophotometer interfaced to an IBM PC computer and a Gilford Response II spectrophotometer. The buffer contained 100 mM Na^+, 10 mM phosphate and 0.1 mM EDTA, pH 7. Oligonucleotide concentration was 4 μM each strand determined from the absorbance at 85° C. and extinction coefficients calculated according to Puglisi and Tinoco [Methods in Enzymol., 180, 304 (1989). Tm values, free energies of duplex formation and association constants were obtained from fits of data to a two state model with linear sloping baselines. [Petersheim and Turner, Biochemistry, 22, 256 (1983). Reported parameters are averages of at least three experiments. For some oligonucleotides, free energies of duplex formation were also obtained from plots of Tm^−1 vs log10 (concentration). Borer et al., J. Mol. Biol., 86, 843 (1974)."}, "[3]": {"test_system": "complementary RNA strand (the sense strand)", "assay": "Thermal melting analysis of 2′-deoxy-2′-fluoro modified oligonucleotides (hybridization thermodynamics)", "type": "binding"}, "[4]": {"conditions": "duplex with complementary RNA, first Tm column"}}, "note": "Like-named read-outs stand apart in the source and are kept apart here. [OPent] = 2'-O-pentyl ribonucleoside; [OPr] = 2'-O-propyl ribonucleoside; d = 2'-deoxy (DNA)", "data": [{"substance": "CsCsAsCsAsCsCsGsAoCsGsGsCsGsCsCsC [ISIS 4248]", "values": [{"measurement": "effect on ras expression", "setting": "[1]", "value": "just as active as a full P═S molecule"}]}, {"substance": "TCCGTCATCGCTCCTCAGGG [Oligonucleotide 5122]", "values": [{"measurement": "inhibition of ras expression / decrease of ras mRNA", "setting": "ras mRNA; listed as 5122", "value": 15, "unit": "%"}]}, {"substance": "C^MC^MA^M C^MA^MC^M CdGdAd CdGdG^M C^MG^MC^M C^MC^M [Oligonucleotide 3980]", "values": [{"measurement": "inhibition of ras-luciferase activity", "setting": "[1]", "value": "next greatest inhibition"}, {"measurement": "inhibition of ras expression / decrease of ras mRNA", "setting": "ras mRNA", "value": 61, "unit": "%"}]}, {"substance": "CTTATATTCCGTCATCGCTC (chemistry not given here) [Oligonucleotide 4998, chimeric phosphorothioate, 7-base deoxy gap flanked by 2′-O-methyl regions, AUG target]", "values": [{"measurement": "inhibition of ras expression / decrease of ras mRNA", "setting": "ras mRNA; listed as 4998", "value": 84, "unit": "%"}]}, {"substance": "AsAsAsAsCsGsTsCsAsGsCsCsAsTsGsGsTsCsCsC (AAAACGTCAGCCATGGTCCC; listed as DNA, chemistry not fully specified) [Oligonucleotide 3522, reference compound]", "values": [{"measurement": "effect on PKC-α mRNA levels", "setting": "PKC-α mRNA", "value": "reduction of PKC-α mRNA"}]}, {"substance": "C^MC^MA^M C^MAdCd CdGdAd CdGdGd CdG^MC^M C^MC^M [Oligonucleotide 3984]", "values": [{"measurement": "inhibition of ras-luciferase activity", "setting": "[1]", "value": "greater inhibition of ras-luciferase activity than did oligonucleotide 2570"}, {"measurement": "inhibition of ras expression / decrease of ras mRNA", "setting": "ras mRNA", "value": 81, "unit": "%"}]}, {"substance": "oligonucleotide with the 2′-O-propyl diester flanking regions: SEQ ID NO:1, phosphorothioate backbone in the 7-base deoxy gap only, phosphodiester 2′-O-propyl flanking regions (CCACACCGACGGCGCCC; 2'-O-propyl phosphodiester flanks, 7-deoxy phosphorothioate gap, exact positions not given here)", "values": [{"measurement": "effect on ras expression", "setting": "[1]", "value": "able to inhibit ras expression"}]}, {"substance": "AsAsAsAsCsGsTsCsAsGsCsCsAsTsGsGsTsCsCsC (AAAACGTCAGCCATGGTCCC; all phosphorothioate, sugars by position and methylation of C not given here; further chemistry not fully specified) [Oligonucleotide 5352]", "values": [{"measurement": "effect on PKC-α mRNA levels", "setting": "PKC-α mRNA", "value": "most active"}]}, {"substance": "C^MC^MA^M C^MA^MC^M C^MG^MAd C^MG^MG^M C^MG^MC^M C^MC^M [Oligonucleotide 3975]", "values": [{"measurement": "inhibition of ras-luciferase activity", "setting": "[1]", "value": "neither of the oligonucleotides having either the one or the three 2′-deoxy-erythro-pentofuranosyl nucleotide subsequences showed significant activity"}]}, {"substance": "AsAoAoAoCoGsTsCsAsGsCsCsAsTsGoGoToCoCsC (AAAACGTCAGCCATGGTCCC; linkages s1 o4 s9 o4 s1 (s phosphorothioate, o phosphodiester), sugars by position and methylation of C not given here; further chemistry not fully specified) [Oligonucleotide 7294]", "values": [{"measurement": "effect on PKC-α mRNA levels", "setting": "PKC-α mRNA; listed as 7294", "value": "more active than their 2′-β-methyl counterparts"}]}, {"substance": "TsTsCs TsCsGs CsTsGs GsTsGs AsGsTs TsTsC (TTCTCGCTGGTGAGTTTC; all phosphorothioate, sugars by position and methylation of C not given here; further chemistry not fully specified) [Oligonucleotide 6632]", "values": [{"measurement": "effect on PKC-α mRNA levels", "setting": "PKC-α mRNA", "value": "most active"}]}, {"substance": "AoAoAoAoCoGsTsCsAsGsCsCsAsTsGoGoToCoCoC (AAAACGTCAGCCATGGTCCC; linkages o5 s9 o5 (s phosphorothioate, o phosphodiester), sugars by position and methylation of C not given here; further chemistry not fully specified) [Oligonucleotide 7273]", "values": [{"measurement": "effect on PKC-α mRNA levels", "setting": "PKC-α mRNA", "value": "more active than their 2′-β-methyl counterparts"}]}, {"substance": "AsAoAoAoCoGsTsCsAsGsCsCsAsTsGoGoToCoCsC (AAAACGTCAGCCATGGTCCC; linkages s1 o4 s9 o4 s1 (s phosphorothioate, o phosphodiester), sugars by position and methylation of C not given here; further chemistry not fully specified) [Oligonucleotide 7008]", "values": [{"measurement": "effect on PKC-α mRNA levels", "setting": "PKC-α mRNA; listed as 7008", "value": "reduction of PKC-α mRNA"}]}, {"substance": "O-Pentyl: 17-mer CCACACCGACGGCGCCC (SEQ ID NO: 1), 2′-O-pentyl nucleotides flanking a 7-base deoxy gap (sugars from the 5' end [OPent]5 d7 [OPent]5, backbone and methylation of C not given here)", "values": [{"measurement": "Tm", "setting": "[2]", "value": 68.5, "unit": "°C"}]}, {"substance": "CTTATATTCCGTCATCGCTC (chemistry not given here) [Compound 2502, phosphorothioate oligonucleotide complementary to the ras AUG region, 20 deoxy, reference compound]", "values": [{"measurement": "inhibition of ras expression / decrease of ras mRNA", "setting": "ras mRNA", "value": 26, "unit": "%"}]}, {"substance": "CTC GTA CCT TCC GGT CC: unmodified phosphodiester, SEQ ID NO: 22 (CTCGTACCTTCCGGTCC; unmodified DNA)", "values": [{"measurement": "Tm", "setting": "[3]; [4]", "value": 61.6, "unit": "°C"}]}, {"substance": "ps(CGA CUA UGC AAG UAC)", "values": [{"measurement": "Tm", "setting": "[3]; [4]", "value": 60.9, "unit": "°C"}]}, {"substance": "C^MC^MA^M C^MA^MC^M C^MGdAd CdG^MG^M C^MG^MC^M C^MC^M [Oligonucleotide 3979]", "values": [{"measurement": "inhibition of ras-luciferase activity", "setting": "[1]", "value": "measurable activity for the three nucleotide subsequence oligonucleotide 3979 at the highest concentration dose"}]}, {"substance": "CUC GUA CCU UCC GGU CC: SEQ ID NO: 28; adenosine, thymidine and cytidine nucleotides modified to contain 2′-deoxy-2′-fluoro substituents (CUCGUACCUUCCGGUCC; 2'-fluoro on A, U/T, C, G sugar and linkages not given here, further chemistry not given here)", "values": [{"measurement": "Tm", "setting": "[3]; [4]", "value": 81.6, "unit": "°C"}]}, {"substance": "ps(CGA CTA TGC AAG TAC)", "values": [{"measurement": "Tm", "setting": "[3]; change in Tm relative to the unmodified oligonucleotide", "value": "−11.2", "unit": "°C"}, {"measurement": "Tm", "setting": "[3]; [4]", "value": 33.9, "unit": "°C"}]}, {"substance": "O-Propyl: 17-mer CCACACCGACGGCGCCC (SEQ ID NO: 1), 2′-O-propyl nucleotides flanking a 7-base deoxy gap (sugars from the 5' end [OPr]5 d7 [OPr]5, backbone and methylation of C not given here)", "values": [{"measurement": "Tm", "setting": "[2]", "value": 70.4, "unit": "°C"}]}, {"substance": "TsCsTs CsGsCs TsGsGs TsGsAs GsTsTs TsC (TCTCGCTGGTGAGTTTC; all phosphorothioate, sugars by position and methylation of C not given here; further chemistry not fully specified) [Oligonucleotide 7082]", "values": [{"measurement": "effect on PKC-α mRNA levels", "setting": "PKC-α mRNA", "value": "most active"}]}, {"substance": "CsCsAsCoAoCoCoGoAoCoGoGoCoGsCsCsC [ISIS 4241]", "values": [{"measurement": "effect on ras expression", "setting": "[1]", "value": "completely inactive"}]}]}
